Laboratory results published in patent US10300000B2, “Inhibition of melanogenesis by chemically modified curcumins” (The Research Foundation for The State University of New York, priority 2016, dated 2019).

Tests used:
[1] = tested on: intracellular ROS in B16F10 cells; assay: Intracellular ROS assay (H2DCFDA) in B16F10 cells; assay type: cell-based, mouse; settings: B16F10, 25 μM, 48 hours
Description: Intracellular ROS generation was quantified using 2′,7′-dichlorodihydrofluorescein diacetate (H2DCFDA), a non-fluorescent dye which is trapped intracellularly by cleavage by intracellular esterases after reaction with reactive oxygen species (ROS); only the product, DCF, is fluorescent. For measuring intracellular ROS, B16F10 cells were seeded in 24 well plates at 4×10^4 cells/well. After 24 hours, media was aspirated and PC, THC and CMCs were added to the wells at different concentrations and further incubated for 48 hours. At the end of the incubations, the media was aspirated and cells were washed with PBS. DCFDA (Molecular Probes) was dissolved in DMSO to make 10 mM stock. DCFDA dye working stock (50 μM) was prepared by diluting the stock in DMEM (serum-free, phenol-red free and sodium pyruvate free) media and added to cells and further incubated for 45 minutes at 37° C. The cells were then washed with DPBS and fluorescence was read in bottom read mode, using a fluorescence microplate reader (Gemini EM Spectramax, Molecular Devices) set to excitation and emission wavelengths of 485 nm and 535 nm, respectively. Data was expressed as relative fluorescence % of treated vs. control.

[2] = tested on: αMSH-stimulated B16F10 cells; assay: Melanin content in αMSH-stimulated B16F10 cells; assay type: cell-based, mouse; design: unit of the concentration uncertain; settings: 48 hours
Description: (§1) B16F10 cells were seeded at 1×10^5 cells/well in 12-well plates and incubated for 24 hours. The test compounds were then added in presence or absence of αMSH (100 nM), and further incubated for another 48 hours. For evaluation of melanin content, cells were trypsinized, washed in PBS and then 250 μL of 1N NaOH was added and heated to 70° C. to solubilize melanin. The aliquots were then transferred to a 96-well plate and absorbance was read at 475 nm using microplate reader. The absorbance of melanin was normalized by total protein contents and reported as % of control.

[3] = tested on: B16F10 mouse melanoma cells; assay type: cell-based; settings: B16F10, 5 μM, 48 hours, MTS
Description: In order to test the four CMCs (CMC2.14, CMC2.24, CMC2.5 and CMC2.23) alongside PC and THC, for their effects on melanin content, we first screened their nontoxic concentrations using MTS cytotoxicity (Promega CellTiter Aqueous One) assay. MTS is a tetrazolium salt which is reduced to purple colored formazan upon reaction with mitochondrial dehydrogenases. Briefly, B16F10 cells were seeded at 4×10^3 cells/well in 96-well plates for 24 hrs. […] Controls were treated with 0.16% DMSO. At the end of 48 hours, medium was aspirated and replaced by 100 μl of fresh media. MTS (20 μl) was added and incubated for 40 minutes and absorbance read at 490 nm using a Versamax® microplate reader. Cell viability was calculated from the absorbance values relative to control groups and expressed in %.

[4] = tested on: αMSH-stimulated B16F10 cells; assay: Melanin content in αMSH-stimulated B16F10 cells; assay type: cell-based, mouse
Description: as §1

Structure (SMILES): COC(=O)C(C(=O)C=Cc1ccc(O)c(OC)c1)C(=O)C=Cc1ccc(O)c(OC)c1 (centres unmarked) [CMC2.5, 4-methoxycarbonyl curcumin]
- reduction of intracellular ROS [1]: 23%
- reduction of melanin ([2]; αMSH-stimulated B16F10, 20 (unit uncertain) as printed): 36%
- reduction of melanin ([2]; αMSH-stimulated B16F10, 25 (unit uncertain) as printed): 42%

Structure (SMILES): COC(=O)C(C(=O)/C=C/c1ccc(O)cc1)C(=O)/C=C/c1ccc(O)cc1 [CMC2.14]
- increase of cell proliferation [3]: 26.2%

Structure (SMILES): COc1cc(/C=C/C(=O)C(C(=O)/C=C/c2ccc(O)c(OC)c2)C(=O)Nc2ccccc2)ccc1O [CMC2.23]
- lightening of cell pellets [4]: visible lightening
